Biological target: hMC2 receptor (Homo sapiens, UniProt Q01718)
Test: hMC2 membrane binding assay ([125I]ACTH (1-39) Tyr23, SPA)
Set-up: scale not given here
Settings: crude hMC2R membranes from CRE-bla-CHO-K1 cells expressing hMC2 receptor and hMRAP; [125I]ACTH (1-39) Tyr23 0.2 nM; 1.5 hours at room temperature; read-out: MC2R binding potency
Protocol: Crude membrane fractions are prepared from CRE-bla-CHO-K1 cells stably expressing hMC2 receptor and hMRAP accessory protein (Thermo Fisher). The cells are grown to 85-100% confluence on standard tissue culture dishes in GlutaMax DMEM growth media (Gibco) with following additives: 10% dialyzed FBS (Gemini), 0.1 mM NEAA (Gibco), 25 mM HEPES (Gibco), 5 μg/mL blasticidin (Goldbio), 100 μg/mL zeocin (Invitrogen), 600 μg/mL hygromycin (Goldbio). To prepare membranes, cells are scraped and collected in 1× Dulbecco's phosphate buffered saline (Corning) and then pelleted at 1000 RPM's. The cell pellet is reconstituted in membrane preparation buffer (20 mM HEPES, 6 mM MgCl2 and 1 mM EGTA, protease inhibitor tablets (Pierce) adjusted to pH 7.4), homogenized using a dounce homogenizer, and the resulting membrane fraction is pelleted by centrifugation at 12,000 RPM's. The membrane pellet is resuspended in membrane preparation buffer, snap freezed and stored at −80° C. for later use.
Binding Assay for hMC2 Antagonists Protocol:
The hMC2 membrane binding assay utilizes the following components: radiolabel [^125I]ACTH (1-39) Tyr23 (PerkinElmer), wheatgerm agglutinin coated PVT SPA beads (PerkinElmer), crude hMC2R membranes, and compounds. Briefly hMC2R membranes are incubated with SPA beads in binding assay buffer (50 mM HEPES, 5 mM MgCl2, 1 mM CaCl2, 0.2% BSA, protease inhibitor tablets (Pierce) adjusted to pH7.4) prior to assay initiation. A dose response of compound (the final concentration of compound are typically 0-10,000 nM), SPA membranes, and [^125I]ACTH (1-39) Tyr23 at a final concentration of 0.2 nM is plated in a 96-well assay plate and allowed to incubate 1.5 hours at room temperature. Assay plates are read using a Top Count NXT and Ki values for compounds are determined using a GraphPad Prism 6 non-linear regression analysis.

Chain of hMC2 receptor (Q01718 whole entry): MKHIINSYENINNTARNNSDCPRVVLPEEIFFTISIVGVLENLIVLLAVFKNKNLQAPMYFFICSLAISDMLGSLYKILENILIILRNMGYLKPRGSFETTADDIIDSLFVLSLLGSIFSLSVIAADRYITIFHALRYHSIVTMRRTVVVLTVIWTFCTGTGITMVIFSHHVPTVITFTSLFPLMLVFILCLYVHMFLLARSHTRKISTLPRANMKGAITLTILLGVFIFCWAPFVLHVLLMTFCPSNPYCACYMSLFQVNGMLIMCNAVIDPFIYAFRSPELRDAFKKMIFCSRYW
Chain of hMC2 receptor (Q8TCY5 whole entry partner): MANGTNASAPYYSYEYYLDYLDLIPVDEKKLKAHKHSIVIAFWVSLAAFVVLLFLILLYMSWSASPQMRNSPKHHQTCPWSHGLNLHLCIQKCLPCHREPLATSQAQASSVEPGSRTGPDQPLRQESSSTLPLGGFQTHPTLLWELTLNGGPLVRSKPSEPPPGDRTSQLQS

Ki | Structure (SMILES)
< 0.01 µM | CCOc1ncccc1-c1ccc(N2CCN(C(=O)c3ccc(Cl)cc3N3CCC(N)CC3)C[C@H]2CC)c(C(=O)NCCN)c1 [Compound 1-52, N-(2-aminoethyl)-2-[(2R)-4-[2-(4-aminopiperidin-1-yl)-4-chlorobenzoyl]-2-ethylpiperazin-1-yl]-5-(2-ethoxypyridin-3-yl)benzamide]
< 0.01 µM | CCOc1ncccc1-c1ccc(N2CCN(C(=O)c3ccc(Cl)cc3OC)C[C@H]2CC)c(C(=O)NCCN)c1 [Compound 1-54, N-(2-aminoethyl)-2-[(2R)-4-(4-chloro-2-methoxybenzoyl)-2-ethylpiperazin-1-yl]-5-(2-ethoxypyridin-3-yl)benzamide]
< 0.01 µM | CCOc1ncccc1-c1ccc(N2CCN(C(=O)c3ccc(Cl)cc3N3CC[C@H](N)C3)C[C@H]2CC)c(C(=O)NCCN)c1 [Compound 1-57, N-(2-aminoethyl)-2-[(2R)-4-{2-[(3S)-3-aminopyrrolidin-1-yl]-4-chlorobenzoyl}-2-ethylpiperazin-1-yl]-5-(2-ethoxypyridin-3-yl)benzamide]
< 0.01 µM | CCOc1ncccc1-c1ccc(N2CCN(C(=O)c3ccc(F)cc3C(F)(F)F)C[C@H]2CC)c(C(=O)NCCN)c1 [Compound 1-58, N-(2-aminoethyl)-5-(2-ethoxypyridin-3-yl)-2-[(2R)-2-ethyl-4-[4-fluoro-2-(trifluoromethyl)benzoyl]piperazin-1-yl]benzamide]
< 0.01 µM | CCOc1ncccc1-c1ccc(N2CCN(C(=O)c3ccc(C)cc3C(F)(F)F)C[C@H]2CC)c(C(=O)NCCN)c1 [Compound 1-59, N-(2-aminoethyl)-5-(2-ethoxypyridin-3-yl)-2-[(2R)-2-ethyl-4-[4-methyl-2-(trifluoromethyl)benzoyl]piperazin-1-yl]benzamide]
< 0.01 µM | CCOc1ncccc1-c1ccc(N2CCN(C(=O)c3ccc(C)cc3C)C[C@H]2CC)c(C(=O)NCCN)c1 [Compound 1-60, N-(2-aminoethyl)-2-[(2R)-4-(2,4-dimethylbenzoyl)-2-ethylpiperazin-1-yl]-5-(2-ethoxypyridin-3-yl)benzamide]
< 0.01 µM | CCOc1ncccc1-c1ccc(N2CCN(C(=O)c3ccccc3C(F)(F)F)C[C@H]2CC)c(C(=O)NCCN)c1 [Compound 1-62, N-(2-aminoethyl)-5-(2-ethoxypyridin-3-yl)-2-[(2R)-2-ethyl-4-[2-(trifluoromethyl)benzoyl]piperazin-1-yl]benzamide]
< 0.01 µM | CCOc1ncccc1-c1ccc(N2CCN(C(=O)c3ccc(C)cc3N3CC[C@H](NC)C3)C[C@H]2CC)c(C(=O)NCCN)c1 [Compound 1-67, N-(2-aminoethyl)-5-(2-ethoxypyridin-3-yl)-2-[(2R)-2-ethyl-4-{4-methyl-2-[(3S)-3-(methylamino)pyrrolidin-1-yl]benzoyl}piperazin-1-yl]benzamide]
< 0.01 µM | CCOc1ncccc1-c1ccc(N2CCN(C(=O)c3ccc(C)cc3N3CC[C@H](N(C)C)C3)C[C@H]2CC)c(C(=O)NCCN)c1 [Compound 1-68, N-(2-aminoethyl)-2-[(2R)-4-{2-[(3S)-3-(dimethylamino)pyrrolidin-1-yl]-4-methylbenzoyl}-2-ethylpiperazin-1-yl]-5-(2-ethoxypyridin-3-yl)benzamide]
< 0.01 µM | CCOc1ncccc1-c1ccc(N2CCN(C(=O)c3ccc(Cl)cc3C(F)(F)F)C[C@H]2CC)c(C(=O)NCCN)c1F [Compound 1-69, N-(2-aminoethyl)-6-[(2R)-4-[4-chloro-2-(trifluoromethyl)benzoyl]-2-ethylpiperazin-1-yl]-3-(2-ethoxypyridin-3-yl)-2-fluorobenzamide]
< 0.01 µM | CC[C@@H]1CN(C(=O)c2ccc(Cl)cc2C(F)(F)F)CCN1c1ccc(-c2cccnc2OC)cc1C(=O)NCCN [Compound 1-71, N-(2-aminoethyl)-2-[(2R)-4-[4-chloro-2-(trifluoromethyl)benzoyl]-2-ethylpiperazin-1-yl]-5-(2-methoxypyridin-3-yl)benzamide]
< 0.01 µM | CCOc1ncccc1-c1ccc(N2CCN(C(=O)c3ccc(Cl)cc3C(F)(F)F)C[C@H]2CC)c(C(=O)N[C@@H]2CCNC2)c1F [Compound 1-72, 6-[(2R)-4-[4-chloro-2-(trifluoromethyl)benzoyl]-2-ethylpiperazin-1-yl]-3-(2-ethoxypyridin-3-yl)-2-fluoro-N-[(3R)-pyrrolidin-3-yl]benzamide]
< 0.01 µM | CCOc1ncccc1-c1ccc(N2CCN(C(=O)c3ccc(F)cc3Cl)C[C@H]2CC)c(C(=O)N[C@@H]2CCNC2)c1F [Compound 1-73, 6-[(2R)-4-(2-chloro-4-fluorobenzoyl)-2-ethylpiperazin-1-yl]-3-(2-ethoxypyridin-3-yl)-2-fluoro-N-[(3R)-pyrrolidin-3-yl]benzamide]
< 0.01 µM | CCOc1ncccc1-c1ccc(N2CCN(C(=O)c3ccc(C(F)(F)F)nc3N(C)C)C[C@H]2CC)c(C(=O)NCCN)c1 [Compound 1-76, N-(2-aminoethyl)-2-[(2R)-4-[2-(dimethylamino)-6-(trifluoromethyl)pyridine-3-carbonyl]-2-ethylpiperazin-1-yl]-5-(2-ethoxypyridin-3-yl)benzamide]
< 0.01 µM | CCOc1ncccc1-c1ccc(N2CCN(C(=O)c3ccc(F)cc3Cl)C[C@H]2CC)c(C(=O)N[C@@H]2CCNC2)c1 [Compound 1-82, 2-[(2R)-4-(2-chloro-4-fluorobenzoyl)-2-ethylpiperazin-1-yl]-5-(2-ethoxypyridin-3-yl)-N-[(3R)-pyrrolidin-3-yl]benzamide]
< 0.01 µM | CCOc1ncccc1-c1ccc(N2CCN(C(=O)c3ccc(Cl)cc3C(F)(F)F)C[C@H]2CC)c(C(=O)NCCc2cnc[nH]2)c1 [Compound 1-84, 2-[(2R)-4-[4-chloro-2-(trifluoromethyl)benzoyl]-2-ethylpiperazin-1-yl]-5-(2-ethoxypyridin-3-yl)-N-[2-(1H-imidazol-5-yl)ethyl]benzamide]
< 0.01 µM | CCOc1ncccc1-c1ccc(N2CCN(C(=O)c3ccc(Cl)cc3C)C[C@H]2CC)c(C(=O)NCCN)c1 [Compound 1-87, N-(2-aminoethyl)-2-[(2R)-4-(4-chloro-2-methylbenzoyl)-2-ethylpiperazin-1-yl]-5-(2-ethoxypyridin-3-yl)benzamide]
< 0.01 µM | CCOc1ncccc1-c1ccc(N2CCN(C(=O)c3ccc(C4CC4)cc3C)C[C@H]2CC)c(C(=O)NCCN)c1 [Compound 1-88, N-(2-aminoethyl)-2-[(2R)-4-(4-cyclopropyl-2-methylbenzoyl)-2-ethylpiperazin-1-yl]-5-(2-ethoxypyridin-3-yl)benzamide]
< 0.01 µM | CCOc1ncccc1-c1ccc(N2CCN(C(=O)c3ccc(Cl)cc3N3CCNCC3)C[C@H]2CC)c(C(=O)N[C@@H]2CCNC2)c1 [Compound 1-90, 2-[(2R)-4-[4-chloro-2-(piperazin-1-yl)benzoyl]-2-ethylpiperazin-1-yl]-5-(2-ethoxypyridin-3-yl)-N-[(3R)-pyrrolidin-3-yl]benzamide]
< 0.01 µM | CCOc1ncccc1-c1ccc(N2CCN(C(=O)c3ccc(Cl)cc3N(C)C)C[C@H]2CC)c(C(=O)N[C@@H]2CCNC2)c1 [Compound 1-91, 2-[(2R)-4-[4-chloro-2-(dimethylamino)benzoyl]-2-ethylpiperazin-1-yl]-5-(2-ethoxypyridin-3-yl)-N-[(3R)-pyrrolidin-3-yl]benzamide]
< 0.01 µM | CCOc1ncccc1-c1ccc(N2CCN(C(=O)c3ccc(Cl)cc3C(F)(F)F)C[C@H]2CC)c(C(=O)N[C@H]2CCNC2)c1 [Compound 1-92, 2-[(2R)-4-[4-chloro-2-(trifluoromethyl)benzoyl]-2-ethylpiperazin-1-yl]-5-(2-ethoxypyridin-3-yl)-N-[(3S)-pyrrolidin-3-yl]benzamide]
